Patent US20250011311A1, “AMIDO HETEROAROMATIC COMPOUNDS” (AstraZeneca AB, priority 2022, published 2025)

Experiments:
[1] = target: human CB1 receptor expressed in transfected CHO cells (Homo sapiens (Human), UniProt P21554); assay: Assay C: CB1 Agonism Assay; type: cell-based; details: agonist activity, cAMP HTRF, read-out: Assay C: CB1 Hu CHO cAMP TRF Ag CR GMean EC50
Method: Assay C: CB1 Agonism Assay
Evaluation of the agonist activity of compounds at the human CB1 receptor expressed in transfected CHO cells, determined by measuring their effects on cAMP modulation using the HTRF detection method.
Thereafter, the adenylyl cyclase activator NKH 477 is added at a final concentration of 3 μM. Following 20 min incubation at 37° C., the cells are lysed and the fluorescence acceptor (D2-labeled cAMP) and fluorescence donor (anti-cAMP antibody labeled with europium cryptate) are added. After 60 min at room temperature, the fluorescence transfer is measured at gex=337 nm and gem=620 and 665 nm using a microplate reader (RUBYSTAR, BMG). The cAMP concentration is determined by dividing the signal measured at 665 nm by that measured at 620 nm (ratio). The results are expressed as a percent of the control response to 30 nM CP 55940. The standard reference agonist is CP 55940, which is tested in each experiment at several concentrations to generate a concentration-response curve from which its EC50 value is calculated.
Bibliographic reference Felder, C. C. et al., (1995), Comparison of the pharmacology and signal transduction of the human cannabinoid CB1 and CB2 receptors, Mol. Pharmacol., 48: 443, which is incorporated herein by reference.

[2] = target: over expressed HSD17β13 in HEK293S cells (Homo sapiens (Human), UniProt Q7Z5P4); assay: In Vitro 17bHSD13 Cell Assay; type: cell-based; details: HEK293S cells over expressing HSD17β13; estradiol to estrone conversion, 18 h, LC-MS/MS; read-out: 17bHSD1713 Cell assay IC50
Sequence of over expressed HSD17β13 in HEK293S cells (Q7Z5P4 20-300): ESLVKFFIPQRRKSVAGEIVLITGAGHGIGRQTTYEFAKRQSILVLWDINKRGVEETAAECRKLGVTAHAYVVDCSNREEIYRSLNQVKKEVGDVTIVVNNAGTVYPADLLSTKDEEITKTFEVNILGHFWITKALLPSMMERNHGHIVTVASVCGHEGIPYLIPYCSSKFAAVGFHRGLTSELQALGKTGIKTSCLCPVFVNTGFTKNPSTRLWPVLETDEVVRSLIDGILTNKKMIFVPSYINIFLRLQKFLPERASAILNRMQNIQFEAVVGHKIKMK
Procedure, shortened: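 HEK293S cells overexpressing HSD17β13 convert estradiol to estrone; product read by LC-MS/MS (APCI, positive MRM) as AUC ratio estrone/(estrone+estradiol). Effect normalised between DMSO and maximal inhibition by a known inhibitor control; IC50 from curve fit.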

[3] = target: over expressed HSD17β9 in HEK293S cells (Homo sapiens (Human), UniProt Q92781); assay: In Vitro 17bHSD9 Cell Assay; type: cell-based; details: HEK293S cells over expressing HSD17β9; retinol to retinal conversion, 18 h, LC-MS/MS; read-out: 17bHSD9 Cell assay IC50
Sequence of over expressed HSD17β9 in HEK293S cells (Q92781 whole entry): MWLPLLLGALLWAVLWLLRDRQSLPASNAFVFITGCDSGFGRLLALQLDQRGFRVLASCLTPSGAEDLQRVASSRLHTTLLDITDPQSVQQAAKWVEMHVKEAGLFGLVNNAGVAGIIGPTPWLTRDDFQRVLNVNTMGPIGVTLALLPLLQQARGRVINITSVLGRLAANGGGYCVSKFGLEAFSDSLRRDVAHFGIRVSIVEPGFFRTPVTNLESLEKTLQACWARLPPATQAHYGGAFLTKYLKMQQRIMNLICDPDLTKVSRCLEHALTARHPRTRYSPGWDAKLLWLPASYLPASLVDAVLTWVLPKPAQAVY
Procedure, shortened: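 HEK293S cells overexpressing HSD17β9 were plated at 10K cells/well in DMEM + 10% FBS and cultured 18 h. Retinol-to-retinal conversion in media was quantified by LC-MS/MS (MRM) as retinal/(retinal + retinol). IC50 was fitted after normalisation to DMSO and full inhibition by a reference inhibitor.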

CYP2C9 = CYP2C9 (Homo sapiens (Human), UniProt P11712); assay: Assay B: Cytochrome P450 Inhibition 2C9
Sequence of CYP2C9 (P11712 whole entry): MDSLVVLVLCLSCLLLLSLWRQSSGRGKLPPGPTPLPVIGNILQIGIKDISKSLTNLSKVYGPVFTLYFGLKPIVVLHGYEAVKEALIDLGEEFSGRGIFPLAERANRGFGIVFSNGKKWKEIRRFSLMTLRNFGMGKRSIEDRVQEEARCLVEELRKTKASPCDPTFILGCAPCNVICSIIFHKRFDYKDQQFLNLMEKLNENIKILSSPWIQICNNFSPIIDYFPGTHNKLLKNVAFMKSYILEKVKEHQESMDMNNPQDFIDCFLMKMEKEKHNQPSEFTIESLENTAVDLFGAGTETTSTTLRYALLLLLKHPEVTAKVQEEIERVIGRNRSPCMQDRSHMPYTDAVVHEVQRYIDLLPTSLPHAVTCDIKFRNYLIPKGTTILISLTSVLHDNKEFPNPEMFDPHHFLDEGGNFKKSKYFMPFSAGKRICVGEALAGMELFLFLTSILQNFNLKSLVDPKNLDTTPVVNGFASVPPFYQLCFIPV
Method: A fluorescence-based method in 96-well format was used to determine the inhibition of 2C9 (Crespi, C. L. et al., Microtiter plate assays for inhibition of human, drug-metabolizing cytochromes P450. Anal Biochem 1997, 248 (1), 188-190. DOI: 10.1006/abio.1997.2145, which is incorporated herein by reference). The recombinant human enzymes used were prepared in house, except for CYP2D6 (CYPEX LTD, Dundee, UK). Different coumarin substrates, biotransformed into fluorescent metabolites, were used as probes for each individual CYP. A fluorescence plate reader (SPECTRAMAX GEMINIXS, MOLECULAR DEVICES, Sunnyvale, California, USA) was used to measure the levels of metabolites formed. A dilution series of the test substrates was prepared at eight different concentrations. For each CYP, a mixture of the enzyme, corresponding coumarin substrate, potassium phosphate buffer pH 7.4 and water (concentrations and volumes were CYP-dependent) were added to each well in a black 96-well plate. The test substrates at different concentrations were added. After 10 min pre-incubation, the co-factor NADPH was added to initiate the reaction. After 20-50 min (CYP and substrate-dependent) the reaction was terminated by addition of trisbase/MeCN (20:80). The plates were transferred to the fluorescence plate reader where the wavelengths were set individually for the different coumarin substrates and their respective fluorescent metabolite. The responses were exported to Excel where the IC50 curves were plotted (percent inhibition versus concentration) and IC50 values calculated for each test substrate and enzyme using XL-fit.

Sequence of human CB1 receptor expressed in transfected CHO cells (P21554 whole entry): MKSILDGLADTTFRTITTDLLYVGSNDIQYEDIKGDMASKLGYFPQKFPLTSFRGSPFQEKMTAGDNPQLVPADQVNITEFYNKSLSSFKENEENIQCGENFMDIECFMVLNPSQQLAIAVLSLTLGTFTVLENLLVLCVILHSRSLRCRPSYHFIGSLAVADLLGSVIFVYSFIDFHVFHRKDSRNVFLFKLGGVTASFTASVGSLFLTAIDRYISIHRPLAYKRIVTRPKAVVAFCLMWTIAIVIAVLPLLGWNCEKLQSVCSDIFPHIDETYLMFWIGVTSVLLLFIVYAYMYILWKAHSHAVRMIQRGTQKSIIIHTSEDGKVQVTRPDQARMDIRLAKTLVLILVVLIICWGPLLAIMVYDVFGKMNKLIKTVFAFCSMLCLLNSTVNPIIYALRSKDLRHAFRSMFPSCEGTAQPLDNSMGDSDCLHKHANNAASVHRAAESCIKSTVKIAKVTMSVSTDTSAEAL

SMILES | EC50 [1] [µM] | IC50 [2] [µM] | IC50 [3] [µM] | IC50 (CYP2C9) [µM]
O=C(c1noc(-c2cc(F)c(F)c(O)c2F)n1)N1CCO[C@H]2CCC[C@@H]21 [Example 115, ((4aS,7aS)-Hexahydrocyclopenta[b][1,4]oxazin-4(4aH)-yl)(5-(2,4,5-trifluoro-3-hydroxyphenyl)-1,2,4-oxadiazol-3-yl)methanone] | > 100 | 0.1 | 32.5 | 9.8
O=C(c1noc(-c2ccc(F)c(O)c2)n1)N1CC[C@H](c2ccccc2)C1 [Example 11, (R)-(5-(4-Fluoro-3-hydroxyphenyl)-1,2,4-oxadiazol-3-yl)(3-phenylpyrrolidin-1-yl)methanone] | 3.1 | 0.8 | > 50 | 12.8
C[C@@H]1CN(C(=O)c2ccc(-c3cc(F)c(F)c(O)c3F)s2)C[C@H](C)O1 [Example 3, ((2R,6S)-2,6-Dimethylmorpholino)(5-(2,4,5-trifluoro-3-hydroxyphenyl)thiophen-2-yl)methanone] | > 100 | 0.03 | > 50 | 1.6
CC1CN(C(=O)c2noc(-c3cc(F)c(F)c(O)c3F)n2)CC2(CCC2)O1 (racemic) [Example 123, (6-Methyl-5-oxa-8-azaspiro[3.5]nonan-8-yl)(5-(2,4,5-trifluoro-3-hydroxyphenyl)-1,2,4-oxadiazol-3-yl)methanone] | > 3 | 0.08 | 30 | 9.3
C[C@@H]1CN(C(=O)c2cc(-c3cc(F)c(F)c(O)c3F)on2)C[C@H](C)O1 [Example 89, ((2R,6S)-2,6-Dimethylmorpholino)(5-(2,4,5-trifluoro-3-hydroxyphenyl)isoxazol-3-yl)methanone] | 78.2 | 0.07 | > 50 | 3.7
CC[C@H]1CN(C(=O)c2noc(-c3cc(F)c(F)c(O)c3F)n2)C[C@@H](C)O1 (racemic) [Example 121, rac-((2R,6S)-2-Ethyl-6-methylmorpholino)(5-(2,4,5-trifluoro-3-hydroxyphenyl)-1,2,4-oxadiazol-3-yl)methanone] | > 10 | 0.02 | 16.4 | 7.7
C[C@@H]1C[C@H](C)CN(C(=O)c2noc(-c3cc(F)c(F)c(O)c3F)n2)C1 [Example 37, ((3R,5S)-3,5-Dimethylpiperidin-1-yl)(5-(2,4,5-trifluoro-3-hydroxyphenyl)-1,2,4-oxadiazol-3-yl)methanone] | 2.5 | 0.03 | 10 | 7.8
O=C(c1noc(-c2cc(F)c(F)c(O)c2F)n1)N1CCO[C@@H]2CCC[C@H]21 [Example 114, ((4aR,7aR)-Hexahydrocyclopenta[b][1,4]oxazin-4(4aH)-yl)(5-(2,4,5-trifluoro-3-hydroxyphenyl)-1,2,4-oxadiazol-3-yl)methanone] | 60.5 | 0.12 | 15.8 | 7.2
O=C(c1noc(-c2cc(F)c(F)c(O)c2F)n1)N1CCO[C@@H]2CCC[C@@H]21 [Example 113, ((4aS,7aR)-Hexahydrocyclopenta[b][1,4]oxazin-4(4aH)-yl)(5-(2,4,5-trifluoro-3-hydroxyphenyl)-1,2,4-oxadiazol-3-yl)methanone] | 0.4 | 0.1 | > 50 | 4.2
COc1ccccc1C1CCN(C(=O)c2noc(-c3cc(F)c(F)c(O)c3F)n2)C1 (stereo not shown) [Example 4, (3-(2-Methoxyphenyl)pyrrolidin-1-yl)(5-(2,4,5-trifluoro-3-hydroxyphenyl)-1,2,4-oxadiazol-3-yl)methanone] | 1.9 | 0.08 | 13 | 0.6
C[C@@H]1C[C@H](C)CN(C(=O)c2nc(-c3cc(F)c(F)c(O)c3F)no2)C1 [Example 111, ((3R,5S)-3,5-Dimethylpiperidin-1-yl)(3-(2,4,5-trifluoro-3-hydroxyphenyl)-1,2,4-oxadiazol-5-yl)methanone] | 3.4 | 0.1 | > 50 | 4.9
C[C@@H]1CN(C(=O)c2cnc(-c3cc(F)c(F)c(O)c3F)s2)C[C@H](C)O1 [Example 120, ((2R,6S)-2,6-Dimethylmorpholino)(2-(2,4,5-trifluoro-3-hydroxyphenyl)thiazol-5-yl)methanone] | 8.5 | 0.14 | > 50 | 12.8
CC(C)[C@H]1CN(C(=O)c2noc(-c3cc(F)c(F)c(O)c3F)n2)C[C@@H](C)O1 (racemic) [Example 122, rac-((2R,6S)-2-isopropyl-6-methylmorpholino)(5-(2,4,5-trifluoro-3-hydroxyphenyl)-1,2,4-oxadiazol-3-yl)methanone] | 22.3 | 0.04 | 8.3 | 4.4
O=C(c1noc(-c2cc(F)c(F)c(O)c2F)n1)N1CC(Oc2ccccc2)C1 [Example 2, (3-Phenoxyazetidin-1-yl)(5-(2,4,5-trifluoro-3-hydroxyphenyl)-1,2,4-oxadiazol-3-yl)methanone] | – | 1.61 | > 50 | 1.8
O=C(c1noc(-c2cc(F)c(F)c(O)c2F)n1)N1CC[C@H](c2ccc(Cl)cc2)C1 [Example 95, (R)-(3-(4-Chlorophenyl)pyrrolidin-1-yl)(5-(2,4,5-trifluoro-3-hydroxyphenyl)-1,2,4-oxadiazol-3-yl)methanone] | – | 0.21 | 17 | 1.1
O=C(c1noc(-c2cc(F)c(F)c(O)c2F)n1)N1CCN(CCOc2ccc(Br)cn2)CC1 [Example 69, (4-(2-((5-Bromopyridin-2-yl)oxy)ethyl)piperazin-1-yl)(5-(2,4,5-trifluoro-3-hydroxyphenyl)-1,2,4-oxadiazol-3-yl)methanone] | – | 0.11 | 21.9 | 2.4
O=C(c1noc(-c2cc(F)c(F)c(O)c2F)n1)N1CC(c2ccc(F)cc2)C1 [Example 74, (3-(4-Fluorophenyl)azetidin-1-yl)(5-(2,4,5-trifluoro-3-hydroxyphenyl)-1,2,4-oxadiazol-3-yl)methanone] | – | 3 | > 50 | 1.8
O=C(c1noc(-c2cc(F)c(F)c(O)c2F)n1)N1CCO[C@H]2CCC[C@H]21 [Example 112, ((4aR,7aS)-Hexahydrocyclopenta[b][1,4]oxazin-4(4aH)-yl)(5-(2,4,5-trifluoro-3-hydroxyphenyl)-1,2,4-oxadiazol-3-yl)methanone] | – | 0.39 | 32.4 | 5.4
CCCC1CCN(C(=O)c2noc(-c3cc(F)c(F)c(O)c3F)n2)C1 (stereo not shown) [Example 76, (3-Propylpyrrolidin-1-yl)(5-(2,4,5-trifluoro-3-hydroxyphenyl)-1,2,4-oxadiazol-3-yl)methanone] | – | 0.14 | 19.6 | 2.6
C[C@@H]1CC[C@H](C)N1C(=O)c1noc(-c2cc(F)c(F)c(O)c2F)n1 [Example 38, ((2R,5S)-2,5-Dimethylpyrrolidin-1-yl)(5-(2,4,5-trifluoro-3-hydroxyphenyl)-1,2,4-oxadiazol-3-yl)methanone] | – | 0.27 | 8.7 | 14.8
O=C(c1noc(-c2cc(F)c(F)c(O)c2F)n1)N1CC2CCC(C1)C2(F)F [Example 43, (8,8-difluoro-3-azabicyclo[3.2.1]octan-3-yl)(5-(2,4,5-trifluoro-3-hydroxyphenyl)-1,2,4-oxadiazol-3-yl)methanone] | – | 0.24 | 18.4 | 13.9
N#Cc1ccc2c(c1)CN(C(=O)c1noc(-c3cc(F)c(F)c(O)c3F)c1C#N)CC2 [Example 29, 3-(7-Cyano-1,2,3,4-tetrahydroisoquinoline-2-carbonyl)-5-(2,4,5-trifluoro-3-hydroxyphenyl)isoxazole-4-carbonitrile] | – | 0.44 | 16.3 | 0.2
O=C(c1noc(-c2cc(F)c(F)c(O)c2F)n1)N1CCOC2CCCC21 (stereo not shown) [Example 41, (Hexahydrocyclopenta[b][1,4]oxazin-4(4aH)-yl)(5-(2,4,5-trifluoro-3-hydroxyphenyl)-1,2,4-oxadiazol-3-yl)methanone] | – | 0.09 | 49.6 | 15.4
